The source made the active and inactive calls. The calls are words filed in the database; no cut-off is given here.
System: Saccharomyces cerevisiae
Assay: Antifungal activity against Saccharomyces cerevisiae
Format: functional, organism-based

CCCCCCCC1=CC(=O)C(O)(CCCCCC)O1 (stereo unspecified)
Activity: inactive

Reference: ChEMBL document CHEMBL1158790, “Pseudopyronines A and B, alpha-pyrones produced by a marine Pseudomonas sp. F92S91, and evidence for the conversion of 4-hydroxy-alpha-pyrone to 3-furanone” (J Nat Prod, 2005)
